Laboratory results: US8129410B2, “Benzisoxazole piperidine compounds and methods of use thereof” (Hypnion, Inc., priority 2005, dated 2012)

Tested on: adult, male Wistar rats
Experiment: Sleep-wakefulness monitoring (SCORE-2004, EEG/EMG) in rats after oral dosing at CT-18
Format: in vivo, rat
Conditions: for LONGEST UNINTERRUPTED SLEEP BOUT: bout length defined in minutes; for MAXIMUM NREM SLEEP CUMULATION: cumulative nonREM defined in minutes, in min
Method: Sleep-wakefulness, locomotor activity and body temperature are monitored in male Wistar rats treated with a test compound (i.e., benzisoxazole analog) initially at a concentration of 10 mg/kg. Higher and lower doses are assayed for select compounds (e.g., as high as 45 mg/kg, and as low as necessary to establish a no-effect dose). Treatments are administered at CT-18, the peak of the activity dominated period (6 hours after lights-off), and produced soporific (sleep-inducing) effects characterized by increased non-REM sleep time, increased sleep continuity, but without evidence of REM sleep inhibition or rebound insomnia.
Sleep-wakefulness, locomotor activity and body temperature were monitored in vivo with various compounds of the invention. Adult, male Wistar rats (250 g at time of surgery, Charles River Laboratories, Wilmington Mass.) were anesthetized (2% isoflourane in medical grade oxygen) and surgically prepared with a cranial implant to permit chronic electro-encephalogram (EEG) and electromyogram (EMG) recording. Body temperature and locomotor activity were monitored via a miniature transmitter (Mini-Mitter, Bend, Oreg.) surgically placed in the abdomen. The cranial implant consisted of stainless steel screws (two frontal [+3.2 AP from bregma, ±2.0 ML] and two occipital [−6.9 AP, ±5.5 ML]) for EEG recording. Two Teflon®-coated stainless steel wires were positioned under the nuchal trapezoid muscles for EMG recording. All leads were soldered to a miniature connector prior to surgery, and gas sterilized in ethylene oxide. The implant assembly was affixed to the skull with dental acrylic. A minimum of three weeks was allowed for surgical recovery.
Each rat was permanently housed in its own individual recording cage located within separate, ventilated compartments of custom-designed stainless steel cabinets. Each cage was enhanced with a filter-top riser and low-torque swivel-commutator. Food and water were available ad libitum. A 24-hr light-dark cycle (12 hours light, 12 hours dark) was maintained throughout the study. Animals were undisturbed for at least 48 hours before and after treatments.
Sleep and wakefulness were determined using “SCORE-2004™” (Hypnion, Worcester, Mass.)—an internet-based sleep-wake and physiological monitoring system. The system monitored amplified EEG (bandpass 1-30 Hz), integrated EMG (bandpass 10-100 Hz), body temperature and non-specific locomotor activity (LMA) via telemetry, and drinking activity, continuously and simultaneously. Arousal states were classified on-line as non-REM (NREM) sleep, REM sleep, wake, or theta-dominated wake every 10 seconds. Total drinking and locomotor activity counts, and body temperature were quantitiated and recorded each minute, using EEG feature extraction and pattern-matching algorithms. […] The classification algorithm used individually-taught EEG-arousal-state templates, plus EMG criteria to differentiate REM sleep from theta-dominated wakefulness, plus behavior-dependent contextual rules (e.g., if the animal was drinking, it is awake). Drinking and locomotor activity intensity (LMA) were recorded every 10 seconds, while body temperature was recorded each minute. Locomotor activity was detected by a telemetry receiver (Mini-Mitter) beneath the cage. Telemetry measures (LMA and body temperature) were not part of the scoring algorithm; thus, sleep-scoring and telemetry data were independent measures.
Compounds were administered at CT-18, the peak of the activity-dominated period, sufficient time was allowed to view the time course of the treatment effect before lights-on (6 hours post-treatment). Compounds were suspended in sterile 0.25% or 0.5% methylcellulose (1-2 ml/kg). Treatments were administered orally as a bolus.
A parallel group study design was employed. […]

## CC(C)(CN1CCC(c2noc3ccccc23)CC1)C(=O)O [Compound 1]
0.3 mg/kg oral
  LONGEST UNINTERRUPTED SLEEP BOUT: 3.3 ± 1.8
  MAXIMUM NREM SLEEP CUMULATION: 13 ± 4
1 mg/kg oral
  LONGEST UNINTERRUPTED SLEEP BOUT: 17.2 ± 4.8
  MAXIMUM NREM SLEEP CUMULATION: 23 ± 6
3 mg/kg oral
  LONGEST UNINTERRUPTED SLEEP BOUT: 16.1 ± 2.3
  MAXIMUM NREM SLEEP CUMULATION: 21 ± 6
10 mg/kg oral
  LONGEST UNINTERRUPTED SLEEP BOUT: 15.2 ± 3.3
  MAXIMUM NREM SLEEP CUMULATION: 28 ± 5
